Assay results: the NIST ThermoML archive (doi:10.1021/je049762q)
± gives the expanded uncertainty stated by the source.

Test: molar heat capacity at constant pressure
Settings: 101.33 kPa, Crystal

Clc1cc(Cl)cc(Cl)c1 [1,3,5-trichlorobenzene]
Settings | molar heat capacity at constant pressure [J/K/mol]
171.08 K | 107.71 ± 0.62
172.15 K | 108.11 ± 0.62
174.44 K | 109.1 ± 0.62
174.82 K | 109.23 ± 0.62
177.47 K | 110.35 ± 0.62
177.76 K | 110.52 ± 0.62
180 K | 111.41 ± 0.62
180.1 K | 111.45 ± 0.62
181.06 K | 111.92 ± 0.62
182.71 K | 112.52 ± 0.63
184.34 K | 113.28 ± 0.63
185.3 K | 113.6 ± 0.63
187.58 K | 114.63 ± 0.63
187.87 K | 114.66 ± 0.63
190 K | 115.57 ± 0.63
190.43 K | 115.78 ± 0.63
190.81 K | 115.98 ± 0.63
192.97 K | 116.82 ± 0.63
194.01 K | 117.3 ± 0.63
195.49 K | 117.83 ± 0.64
197.19 K | 118.6 ± 0.64
198 K | 118.86 ± 0.64
200 K | 119.79 ± 0.64
200.35 K | 119.94 ± 0.64
202.96 K | 120.92 ± 0.64
203.48 K | 121.26 ± 0.64
205.42 K | 121.91 ± 0.64
206.6 K | 122.49 ± 0.65
207.87 K | 122.92 ± 0.65
209.7 K | 123.75 ± 0.65
210 K | 123.84 ± 0.65
210.3 K | 123.89 ± 0.65
212.71 K | 124.89 ± 0.65
212.77 K | 125.04 ± 0.65
215.12 K | 125.93 ± 0.65
215.83 K | 126.21 ± 0.65
217.51 K | 126.8 ± 0.65
218.86 K | 127.47 ± 0.66
219.88 K | 127.77 ± 0.66
220 K | 127.82 ± 0.66
221.88 K | 128.7 ± 0.66
222.25 K | 128.72 ± 0.66
224.6 K | 129.66 ± 0.66
224.87 K | 129.89 ± 0.66
226.94 K | 130.61 ± 0.66
227.85 K | 131.11 ± 0.66
229.27 K | 131.59 ± 0.66
230 K | 131.95 ± 0.66
230.81 K | 132.32 ± 0.66
231.58 K | 132.53 ± 0.67
233.76 K | 133.48 ± 0.67
236.18 K | 134.38 ± 0.67
236.69 K | 134.73 ± 0.67
238.46 K | 135.33 ± 0.67
239.6 K | 135.87 ± 0.67
240 K | 136.02 ± 0.67
240.73 K | 136.28 ± 0.67
242.5 K | 137.03 ± 0.67
242.99 K | 137.17 ± 0.67
245.24 K | 138.06 ± 0.68
245.38 K | 138.2 ± 0.68
247.48 K | 138.95 ± 0.68
248.24 K | 139.34 ± 0.68
249.71 K | 139.83 ± 0.68
250 K | 139.96 ± 0.68
251.09 K | 140.46 ± 0.68
251.93 K | 140.7 ± 0.68
253.93 K | 141.6 ± 0.68
256.34 K | 142.49 ± 0.69
256.76 K | 142.74 ± 0.69
258.53 K | 143.37 ± 0.69
259.57 K | 143.79 ± 0.69
260 K | 143.95 ± 0.69
260.71 K | 144.19 ± 0.69
262.36 K | 144.92 ± 0.69
262.88 K | 145.05 ± 0.69
265.05 K | 145.93 ± 0.69
265.15 K | 146.04 ± 0.69
267.2 K | 146.81 ± 0.69
267.91 K | 147.2 ± 0.69
269.34 K | 147.62 ± 0.7
270 K | 147.9 ± 0.7
270.67 K | 148.17 ± 0.7
